Key:
Conditions in all cases: incubation time: 72 h
CAL-148 [1] = assay: normalised viability (% of control), CellTiter-Blue; higher = more viable cells (about 100 = DMSO control)
How it was run: (§1)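 384-well plates were pre-loaded with compound in 5 µl medium before 20 µl of breast cancer cell suspension was seeded. Following 72 h incubation, 2.5 µl CellTiter-Blue reagent was added for 2 h at 37 °C. Fluorescence was read at 560/590 nm and plates were normalised to vehicle (100) and a positive kill control (0), checked by Z'-factor. Normalised viability is reported at a single listed concentration of the series.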

CAL-51 [2] = assay: as above
How it was run: as §1

CAL-85-1 [3] = assay: as above
How it was run: as §1

DU-4475 [4] = assay: as above
How it was run: as §1

HDQ-P1 [5] = assay: as above
How it was run: as §1

MDA-MB-453 [6] = assay: as above
How it was run: as §1

BT-474 = assay: normalised response (% of control), CellTiter-Glo; higher = more viable cells (100 = DMSO, 0 = benzethonium chloride kill control)
Procedure: (§2)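 DSRT, 72 h incubation, CellTox Green / CellTiter-Glo readout. Signal is normalised to DMSO and benzethonium chloride controls. Value is the normalised response at the highest dose.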

BT-549 = assay: as above
Procedure: as §2

CAL-120 = assay: as above
Procedure: as §2

CAL-148 [7] = assay: as above
Procedure: as §2

CAL-51 [8] = assay: as above
Procedure: as §2

CAL-85-1 [9] = assay: as above
Procedure: as §2

DU-4475 [10] = assay: as above
Procedure: as §2

HCC1143 = assay: as above
Procedure: as §2

HCC1599 = assay: as above
Procedure: as §2

HCC1937 = assay: as above
Procedure: as §2

HDQ-P1 [11] = assay: as above
Procedure: as §2

Hs578T = assay: as above
Procedure: as §2

MCF-10A = assay: as above
Procedure: as §2

MDA-MB-231 = assay: as above
Procedure: as §2

MDA-MB-436 = assay: as above
Procedure: as §2

MDA-MB-453 [12] = assay: as above
Procedure: as §2

MDA-MB-468 = assay: as above
Procedure: as §2

MFM-223 = assay: as above
Procedure: as §2

SK-BR-3 = assay: as above
Procedure: as §2

SMILES | normalised viability (CAL-148 [1]) [%] | normalised viability (CAL-51 [2]) [%] | normalised viability (CAL-85-1 [3]) [%] | normalised viability (DU-4475 [4]) [%] | normalised viability (HDQ-P1 [5]) [%] | normalised viability (MDA-MB-453 [6]) [%] | normalised response (BT-474) [%] | normalised response (BT-549) [%] | normalised response (CAL-120) [%] | normalised response (CAL-148 [7]) [%] | normalised response (CAL-51 [8]) [%] | normalised response (CAL-85-1 [9]) [%] | normalised response (DU-4475 [10]) [%] | normalised response (HCC1143) [%] | normalised response (HCC1599) [%] | normalised response (HCC1937) [%] | normalised response (HDQ-P1 [11]) [%] | normalised response (Hs578T) [%] | normalised response (MCF-10A) [%] | normalised response (MDA-MB-231) [%] | normalised response (MDA-MB-436) [%] | normalised response (MDA-MB-453 [12]) [%] | normalised response (MDA-MB-468) [%] | normalised response (MFM-223) [%] | normalised response (SK-BR-3) [%]
COc1ncc(-c2ccc3nccc(-c4ccnnc4)c3c2)cc1NS(=O)(=O)c1ccc(F)cc1F (1000 nM) | 2.42 | 3.63 | 18.6 | 10.2 | 14.4 | 5.04 | 43 | 13.9 | 29.9 | 6.28 | 6.49 | 21 | 9.21 | 23.6 | 56.4 | 24 | 12.8 | 16.1 | 18.8 | 33.7 | 39.4 | 7.5 | 12.7 | 33.4 | 19.1
C[C@@]1(C(=O)Nc2ccc(F)nc2)CCCN1c1nc(Nc2cc(C3CC3)n[nH]2)c2cccn2n1 (10000 nM) | 49.1 | 6.06 | 30.6 | 3.48 | 7.47 | 75.3 | 29.8 | 12.7 | 13.4 | 56.7 | 19.9 | 38.9 | 31.4 | 36.1 | 54.9 | 62.6 | 8.28 | 44.7 | 7.53 | 26.1 | 40.6 | 127 | 20.4 | 25.2 | 57.4
COc1c(C)cnc(Cn2cnc3c(Cl)nc(N)nc32)c1C [BIIB021] (10000 nM) | 15.7 | 9.69 | 21.7 | -0.63 | 30.4 | 4.83 | 27.5 | 38.2 | 45.4 | 25.1 | 11.4 | 18.6 | 0.28 | 31.5 | 47.4 | 29.4 | 20.3 | 33.7 | 13.4 | 16.7 | 41.7 | 27.5 | 23.8 | 35.1 | 34.3
CC(C)C[C@H](NC(=O)[C@H](Cc1ccccc1)NC(=O)c1cnccn1)B(O)O [Bortezomib] (1000 nM) | 0.38 | 1.02 | 2.28 | 0.03 | -1.16 | 11.1 | 1.31 | 2.23 | 7.39 | 0.43 | 2.86 | 0.44 | 6.46 | 5.75 | 21.3 | 2.46 | 0.65 | 0.04 | 3.63 | 0.08 | 1.47 | 11.5 | 0.97 | 2.91 | 1.8
CS(=O)(=O)OCCCCOS(C)(=O)=O [Busulfan] (100000 nM) | 114 | 91.9 | 105 | 89 | 109 | 103 | 89.9 | 107 | 101 | 106 | 110 | 104 | 101 | 104 | 96 | 98.8 | 98.4 | 102 | 102 | 101 | 104 | 102 | 108 | 107 | 111
C#Cc1cccc(Nc2ncnc3cc(OC)c(OCCCCCCC(=O)NO)cc23)c1 [CUDC-101] (10000 nM) | 0.77 | 18.1 | 1.33 | 1.42 | 19.3 | 0.71 | 8.24 | 18 | 38.6 | 0.32 | 12.8 | 1.02 | 5.82 | 15.1 | 7.05 | 21 | 33.4 | 6.2 | 8.27 | 2.74 | 33.5 | 4.64 | 9.04 | 26.4 | 0.76
COc1cccc2c1C(=O)c1c(O)c3c(c(O)c1C2=O)C[C@@](O)(C(C)=O)C[C@@H]3O[C@H]1C[C@H](N)[C@H](O)[C@H](C)O1 [Daunorubicin] (1000 nM) | -0.25 | 1.88 | 12.2 | -1.24 | 16 | 11.6 | 19 | 10.7 | 41.2 | 0.79 | 3.08 | 7.68 | 0.14 | 23.9 | 19.3 | 32.1 | 27.9 | 35.1 | 27.1 | 8.81 | 22.8 | 4.31 | 8.42 | 34.7 | 11.6
CN1CCN(c2ccc3nc(-c4c(N)c5c(F)cccc5[nH]c4=O)[nH]c3c2)CC1 [Dovitinib] (10000 nM) | 88.5 | 108 | 87.1 | 96.7 | 96.4 | 79 | 91.5 | 95.6 | 89.4 | 88.1 | 127 | 95.9 | 99.9 | 90.1 | 102 | 88 | 89.8 | 95.8 | 100 | 94 | 87.6 | 96.4 | 78.1 | 77.6 | 91.5
O=c1[nH]c(=O)n([C@H]2C[C@H](O)[C@@H](CO)O2)cc1F [Floxuridine] (10000 nM) | 31.9 | 15.5 | 39.3 | 56.2 | 93.9 | 32.2 | 59 | 80.1 | 33.5 | 95.7 | 29.4 | 23.6 | 70.7 | 77.6 | 58.1 | 42 | 82.8 | 23 | 84.7 | 67.9 | 57.3 | 97.6 | 60.7 | 103 | 44.8
O=c1[nH]cc(F)c(=O)[nH]1 [Fluorouracil] (10000 nM) | 55.4 | 47.9 | 58.3 | 75.2 | 74.4 | 72.9 | 92.7 | 91.7 | 95.5 | 88.6 | 85.3 | 57.5 | 99.5 | 76 | 93.8 | 72.8 | 91.8 | 93.7 | 88.4 | 82.2 | 75.8 | 94.8 | 77.4 | 105 | 74.8
C[C@@H]1C=C2C(=O)O[C@@H]3CC[C@H](C1)[C@]23O [Galiellalactone] (50000 nM) | 22.4 | 43.1 | 9.47 | 77.4 | 41.7 | 9.52 | 108 | 44.3 | 105 | 124 | 71.1 | 72.2 | 102 | 100 | 90.3 | 107 | 93.9 | 101 | 106 | 106 | 89.5 | 105 | 39.1 | 105 | 107
COC1=C2C[C@@H](C)C[C@H](OC)[C@H](O)[C@@H](C)/C=C(\C)[C@H](OC(N)=O)[C@@H](OC)/C=C\C=C(/C)C(=O)NC(=CC1=O)C2=O [Geldanamycin] (10000 nM) | 7.57 | 2.17 | 6.88 | -0.94 | 14.5 | 7.62 | 8.17 | 19.2 | 26.7 | 33.4 | 6.33 | 10.5 | 0.14 | 24.1 | 45 | 24.2 | 19 | 16.8 | 10.7 | 3.82 | 24.4 | 29.5 | 7.56 | 20.3 | 30.7
CS(=O)(=O)CCNCc1ccc(-c2ccc3ncnc(Nc4ccc(OCc5cccc(F)c5)c(Cl)c4)c3c2)o1 [Lapatinib] (1000 nM) | – | – | – | – | – | – | 96.8 | 105 | 105 | 96.3 | 120 | 73.5 | 106 | 95.4 | 97.1 | 101 | 69.5 | 101 | 43.5 | 105 | 103 | 80.5 | 83.6 | 99.5 | 28.5
Cn1cnc2c(F)c(Nc3ccc(Br)cc3F)c(C(=O)NOCCO)cc21 [MEK-162] (1000 nM) | 90.6 | 84.5 | 70.5 | -0.34 | 91.2 | 122 | 73.9 | 92.7 | 86.6 | 95.9 | 76.4 | 78.8 | 1.31 | 86.5 | 100 | 86 | 71.5 | 90 | 38.9 | 74.8 | 94 | 97.9 | 88.3 | 96.2 | 94.5
CCCC(CCC)C(=O)O [Valproic acid] (10000 nM) | 91.5 | 91.4 | 86.8 | 82.9 | 125 | 106 | – | – | – | – | – | – | – | – | – | – | – | – | – | – | – | – | – | – | –

— the supplement of paper PMC4862054
